This passage reports interaction mode, IC50 and Tm results from paper PMC6269967, “Evaluation of the Interaction between Long Telomeric DNA and Macrocyclic Hexaoxazole (6OTD) Dimer of a G-quadruplex Ligand” (Molecules, 2013).

In experiment [1] the test system is long telomeric DNAs telo48, 72, and 96. As to conditions: ref [53]; cited from earlier work. An excerpt: (§1) For evaluations of interaction and stabilization of telomeric DNA with G4 ligands, telo24 DNA, i.e., four sets of (TTAGGG) repeats consisting of 24 bases in total, has been usually used as a telomeric DNA model, because it is a minimum length able to form one unit of G4 structure.

In experiment [2] the test system is telo24. The note with it: earlier work of the authors, reference not given; cited from earlier work.
Text: as §1

Experiment [3] has as its system telomerase. Kind of experiment: Telomerase repeat amplification protocol (TRAP) assay, cell-free, PC3 cell lysate. The format is biochemical. As to conditions: telomerase reaction 30 min, 20 °C, average of two independent experiments, read-out: telomerase inhibitory activity, IC50. As for the experimental part:
Finally, we examined the telomerase inhibitory activities of the L2H2-6OTD monomer (2) and its dimer 3 in a cell-free system by telomerase repeat amplification protocol (TRAP) assay using PC3 cell lysate. Telomerase is known to elongate various lengths of telomere sequences, and the stabilization ability of each ligand can be evaluated with TRAP assay.
Telomerase repeat amplification protocol (TRAP) assays were conducted as follows; 1 × 10^5 of PC3 cells were lysed with 200 μL of TRAP lysis buffer, placed on ice for 30 min, and centrifuged for 20 min (15,000 rpm, 4 °C). This TRAP lysate (2.0 μL) was mixed with 10×T-PCR buffer (5.0 μL), 2.5 mM dNTPs (1.0 μL), 50 ng/μL TS primer (5'-d[AATCCGTCGAGCAGAGTT]-3', 2.0 μL), 0.2 pM TSNT (5'-d[[…]]-3', 0.5 μL), DEPC (Diethylpyro carbonate) solution in MilliQ water (30 μL), compounds (DMSO solution, 5.0 μL), and placed on ice for 30 min. After the telomerase reactions (30 min, 20 °C), the reacting solution was placed on ice, 2.0 μL of 10 μM NT primer (5'-d[ATCGCTTCTCGGCCTTTT]-3’), 2.0 μL of […] (5'-d[GCGCGG (CTTACC)3CTAACC]-3') and 0.5 μL of Gene Taq (Nippon Gene, Tokyo, Japan) were added. The three-step PCR was performed: 27 cycles of 94 °C for 25 s, 50 °C for 25 s, and 72 °C for 45 s. […] IC50 value was calculated from average of two independent experiments.

For experiment [4], the system named is telo24. As to conditions: telo24 (10 μM), ligand 4 eq.; CD at 295 nm, 50 mM Tris–HCl pH 7.5, 100 mM KCl; 1.0 °C/min; ligand-free Tm 59; ref [53]; cited from earlier work. An excerpt:
(§2) Table 1 Tm values (°C) of telomeric DNAs in the absence or presence of G4 ligands 2 and 3 ^a,b,c. | column: Tm

Experiment [5] has as its system telo48. The note with it: CD at 295 nm, 50 mM Tris–HCl pH 7.5, 100 mM KCl, ref [53], cited from earlier work.
Text: as §2

The target in experiment [6] is telomerase. The note with it: TRAP assay; ref [17],[18],[19],[20],[21],[22]; read-out: telomerase inhibitory activity, IC50; cited from earlier work. An excerpt: At the end of chromosomes, there exists a characteristic region called the telomere. The telomere is composed of double-stranded tandem repeats of (TTAGGG/AATCCC)n sequence amounting to 2–30 kb, to which telomere binding proteins are bound. These sequences are shortened at each cell division, ultimately inducing cell senescence. At the extreme end of these duplex repeats there is a single-stranded 3' overhang, termed the 3' G-tail, consisting of ca. 50−250 nucleotides in total. The G-tail sequence is considered to form G-quadruplexes (G4s), one of the higher-order structures ...

Where two headings read alike, the source gives them in different places.

For orientation: IC50 means the concentration needed to halve the response being measured. Turning to `NCCCC[C@@H]1NC(=O)c2coc(n2)-c2coc(n2)-c2coc(n2)[C@H](CCCCN)NC(=O)c2coc(n2)-c2coc(n2)-c2coc1n2` [compound 2], the interaction mode result in experiment [1] is “each telo24 unit in the long telomeric DNAs interacted with two molecules of L2H2-6OTD (2) in an end-stacking mode, and were induced to take anti-parallel-type topology”; in experiment [2] it was “strongly interacts with telo24 to form anti-parallel-type G4 structure in an end-stacking mode with two molecules of 2”. The IC50 in experiment [3] is 15 nM. Further, the Tm is 75 °C in experiment [4]; 70 °C in experiment [5] (DNA printed telo48 (fourth group), ligand 16 eq., ligand-free Tm 55); 73 °C in experiment [5] (DNA printed telo48 (third group), ligand 12 eq., ligand-free Tm 55); 76 °C in experiment [5] (telo48, ligand 8 eq., 1.0 °C/min, ligand-free Tm 57).

Consider `Cc1oc2nc1-c1nc(co1)-c1nc(co1)-c1nc(co1)-c1nc(co1)-c1nc(co1)C1=NC(CS1)c1nc-2c(C)o1` (centres unmarked) [telomestatin], for which the half-inhibitory concentration (IC50) in experiment [6] is 5 nM.
